Consider four compounds from US6392055B1, “Synthesis and biological evaluation of analogs of the antimitotic marine natural product curacin A” (The University of Pittsburgh, priority 2000, dated 2002).

The target of assay [1] is tubulin (colchicine site). The experiment in a line: Inhibition of [3H]colchicine binding to tubulin. On the set-up: species or system bovine. The note with it: 5 μM [3H]colchicine, 1 μM tubulin. The method, then:
Assays to determine whether 15mix-17mix inhibited binding of [^3H]colchicine to tubulin at both 30° C. and 37° C. were performed. This was accomplished using methods described previously. Kang, G.-J.; Getahun, Z.; Muzaffar, A.; Brossi, A.; Hamel, E. J. Biol. Chem. 1990, 265, 10255; Verdier-Pinard, P.; Lai, J.-Y.; Yoo, H.-D.; Yu, J.; Marquez, B.; Nagle, D. G.; Nambu, M.; White, J. D.; Falck, J. R.; Gerwick, W. H.; Day, B. W.; Hamel, E. Mol. Pharmacol. 1998, 53, 62. Briefly, 5 μM [^3H]colchicine (2.3 TBq/mmol), drug (1, 5, 10, 50, or 250 μM), or vehicle (DMSO, 5% v/v) were incubated at 30° C. for 15 minutes or at 37° C. for 10 minutes with 1 μM tubulin in the presence of 1 M monosodium glutamate, 0.1 M glucose-1-phosphate, 1 mM MgCl2, 1 mM GTP, and 0.5 mg/mL bovine serum albumin. The solutions were filtered through two stacks of DEAE-cellulose filters and the radioactivity in the filtrate was determined by scintillation spectrometry. Each series of determinations included positive controls of 1, 5, and/or 50 μM curacin A.

The test system of assay [2] is isolated bovine brain tubulin. As to the kind of experiment: Inhibition of GTP/glutamate-induced tubulin polymerization (turbidimetric, 30° C.). The format is biochemical. The note with it: read-out: 50% Tubulin Polymerization Inhibition Concentration (TPI) IC50; 30° C., 10 μM tubulin.
For assay [3], the system named is MDA-MB231 cells. The experiment in a line: Growth inhibition of breast carcinoma cells (MTS). The note with it: Homo sapiens, MDA-MB-231, 48 h, read-out: GI50 MDA-MB231 (48 h). Type of assay: cell-based, human.
Assay [4] deals with PC-3 cells. The experiment in a line: Growth inhibition of prostate carcinoma cells (MTS). The format is cell-based, human. The note with it: Homo sapiens, PC-3, 48 h, read-out: GI50 PC-3 (48 h).
In assay [5] the test system is 2008 cells. The experiment in a line: Growth inhibition of ovarian carcinoma cells (MTS). Type of assay: cell-based, human. The note with it: Homo sapiens, Ovarian carcinoma cell, 48 h, read-out: GI50 2008 (48 h).
Assay [6] relates to MCF-7 human breast carcinoma cells. As to the kind of experiment: Mitotic index by immunofluorescence of phosphorylated core histone. The format is cell-based. As to conditions: for concentration causing maximum mitotic block: 0.0075-15 μM. On the procedure: Further verification of the biological activity of compounds 17a-e was obtained in living tumor cells by quantifying their effect on mitotic index, essentially, counting the number of cells in the mitotic phase of the cell cycle. Antimitotic compounds increase the mitotic index, which can be quantified immunohistochemically using an antibody to a mitosis-specific phosphorylated core histone protein. MCF-7 human breast carcinoma cells were treated with increasing concentrations of compounds 17a-e (7.8-1000 nM), curacin A (3.1-400 nM), and vinblastine (0.08-10 nM) for 14-16 hours. The morphology of the cellular nuclei and the mircrotubule cytoskeleton, as well as the phosphorylation of a core histone protein, were visualized using a multiparameter immunofluorescence approach. […] Compound 17b induced cell rounding and the generalized loss of structured microtubules in the same cells. The mitotic index in drug-treated cells was measured. To assess the relative activity of compounds 17a-e and two known microtubule disrupting drugs, vinblastine and curacin A, the minimum effective concentration of each drug was measured.
Phosphorylation of histone H3 occurs during mitosis and is linked to chromosome condensation. Thus, antimitotic agents cause an accumulation of cells containing […]. Wei, Y.; Mizzen, C. A.; Cook, R. G.; Gorovsky, M. A.; Allis, C. D. Proc. Natl Acad. Sci. USA 1998, 95, 7480. MCF-7 human breast carcinoma cells were treated with increasing concentrations (0.0075-15 μM) of 17mix and 17a-e for 14 hours and mitotic index quantities automatically. […] Vinblastine, a classic mitotic inhibitor, was tested over a range of 0.49 nM to 0.1 μM and caused a maximum accumulation of adherent cells in mitosis of 26%.

The mark [7] stands for this setting: incubation at 30° C. for 15 minutes, read-out: 50% Colchicine Binding Inhibitory Concentration (CBI), 30° C.
The mark [8] stands for this setting: incubation at 37° C. for 10 minutes, read-out: 50% Colchicine Binding Inhibitory Concentration (CBI), 37° C.

Molecules are shown by their SMILES. Read-outs that look alike come from different tables or passages of the source.

Broadly, the GI50 is the concentration at which growth is held to half of that of the control. In the case of `COc1cc(/C=C\CC/C=C/C=C(\C)CCC(O)c2cc3ccccc3s2)cc(OC)c1OC` (stereo not shown) [Compound 17b, (4E,6E,10Z)-11-(3,4,5-Trimethoxyphenyl)-4-methyl-1-benzothiophen-2ylundeca-4,6,10-trien-1ol], the IC50 in assay [1] (setting [7]) was determined as 9000 ± 7000 nM; in assay [1] (setting [8]), 19000 ± 2000 nM; in assay [2] it was 1400 nM. The results for the GI50 in assay [3], in assay [4] and in assay [5] were 230 ± 60 nM, 620 ± 50 nM and 360 ± 1 nM, respectively. Also, in assay [6] (14-16 hours), the “fraction of cells exhibiting condensed chromatin and increased core histone phosphorylation” value is “large increase”.
Regarding `COc1cc(/C=C\CC/C=C/C=C(\C)CCC(O)c2cccs2)cc(OC)c1OC` (stereo not shown) [Compound 17c, (4E,6E,10Z)-11-(3,4,5-Trimethoxyphenyl)-4-methyl-1-thiophen-2-ylundeca-4,6,10-trien-1-ol], the IC50 in assay [1] (setting [7]) stood at 39000 ± 10000 nM; in assay [1] (setting [8]), 9000 ± 3000 nM; in assay [2], 1200 nM. Also, the GI50 in assay [3] was determined as 280 ± 40 nM; in assay [4], 380 ± 80 nM; in assay [5], 280 ± 20 nM. In assay [6] (14 hours), the “concentration causing maximum mitotic block” value is listed as “sub-micromolar”.
Take `CC[C@]1(O)C[C@@H]2CN(CCc3c([nH]c4ccccc34)[C@@](C(=O)OC)(c3cc4c(cc3OC)N(C)[C@H]3[C@@](O)(C(=O)OC)[C@H](OC(C)=O)[C@]5(CC)C=CCN6CC[C@]43[C@@H]65)C2)C1` [Vinblastine, vinblastine, reference compound]: in assay [6] (tested over 0.49 nM to 0.1 μM, 14 hours), the “maximum accumulation of adherent cells in mitosis” value came out at 26%.
On to `COc1cc(/C=C\CC/C=C/C=C(\C)CCC(O)c2cc3ccccc3o2)cc(OC)c1OC` (stereo not shown) [Compound 17e, (4E,6E,10Z)-11-(3,4,5-Trimethoxyphenyl)-4-methyl-1-benzofuran-2-ylundeca-4,6,10-trien-1-ol], for which the IC50 in assay [1] (setting [7]) was determined as 9000 ± 4000 nM; in assay [1] (setting [8]), 28000 ± 8000 nM; in assay [2] it was 1600 nM. Also, the GI50 in assay [3] was 120 ± 70 nM; in assay [4], 310 ± 200 nM; in assay [5], 270 ± 50 nM. The “concentration causing maximum mitotic block” value in assay [6] (14 hours) was “sub-micromolar”.
